Experimental data as given in article PMC12141164, “Phase-1 study of vamotinib (PF-114), a 3rd generation BCR::ABL1 tyrosine kinase-inhibitor, in chronic myeloid leukaemia” (Annals of Hematology, 2025).
Where two headings read alike, the source gives them in different places.

Test system: subjects with BCR::ABL1 positive CML
Conditions: for SAE: Upper respiratory tract infection: Relation to study drug No
Procedure: Open-label phase-1 study at 3 clinical centers with dose-escalation using a 3 + 3 scheme with a starting dose of 50 mg/d given continuously. A 28-days of therapy was defined as a cycle. Dose escalation for the subsequent cohort depended on the results of the safety assessment of subjects in the preceding cohort during the 28 days of therapy. Once an MTD was identified expanded cohorts of 10–15 subjects were recruited at doses of interest below the MTD. A modified accelerated dose-escalation regimen was used up to a dose of 400 mg. Dose could be increased for subjects in whom the dose was reduced because of an adverse drug reaction (ADR). Severity of adverse events was assessed using NCI CTC AE v4 [28].
The primary objective was to determine the MTD and DLT of vamotinib during the 1st cycle of therapy. Secondary objectives were to assess the safety and tolerability of vamotinib, determine pharmacokinetics and determine efficacy by response criteria according to 2013 ELN [29].
Safety set consists of all patients, who at least once took the study drug.
Population for DLT evaluation consists of all patients, who received sufficient amount of the study drug during Cycle 1 for adequate DLT assessment.
The sufficient amount of the drug is determined as the intake of ≥ 75 % of the scheduled dose during Cycle 1, except for doses missed due to the DLT.

Cc1ccc(C(=O)Nc2ccc(CN3CCN(C)CC3)c(C(F)(F)F)c2)cc1C#Cc1nnc2ccccn12 [vamotinib]
SAE: Infections and infestations (Cohort 1 50 mg N=3): 0 n (%) | SAE: Infections and infestations (Cohort 2 100 mg N=3): 0 n (%) | SAE: Infections and infestations (Cohort 3 200 mg N=11): 0 n (%) | SAE: Infections and infestations (Cohort 4 400 mg N=12): 0 n (%) | SAE: Infections and infestations (Cohort 5 500 mg N=3): 0 n (%) | SAE: Infections and infestations (Cohort 6 600 mg N=6): 2 (33.3)/2 n (%) | SAE: Infections and infestations (Cohort 7 750 mg N=4): 0 n (%) | SAE: Infections and infestations (Cohort 8 300 mg N=9): 3 (33.3)/3 n (%) | SAE: Infections and infestations (Overall N=51): 5 (9.8)/5 n (%) | SAE: Upper respiratory tract infection (Cohort 1 (50 mg) N=3): 0 n (%) | SAE: Upper respiratory tract infection (Cohort 2 (100 mg) N=3): 0 n (%) | SAE: Upper respiratory tract infection (Cohort 3 (200 mg) N=11): 0 n (%) | SAE: Upper respiratory tract infection (Cohort 4 (400 mg) N=12): 0 n (%) | SAE: Upper respiratory tract infection (Cohort 5 (500 mg) N=3): 0 n (%) | SAE: Upper respiratory tract infection (Cohort 6 (600 mg) N=6): 1 (16.7)/1 n (%) | SAE: Upper respiratory tract infection (Cohort 7 (750 mg) N=4): 0 n (%) | SAE: Upper respiratory tract infection (Cohort 8 (300 mg) N=9): 0 n (%) | SAE: Upper respiratory tract infection (Overall N=51): 1 (2.0)/1 n (%) | Abdominal pain (human, in vivo): 2 (4) Number of subjects (percent) | Abdominal pain upper (human, in vivo): 4 (8) Number of subjects (percent) | Alanine aminotransferase increased (human, in vivo): 2 (4) Number of subjects (percent) | Anal fissure (human, in vivo): 2 (4) Number of subjects (percent) | Blood cholesterol increased (human, in vivo): 3 (6) Number of subjects (percent) | Discontinued: adverse event (human, in vivo): 6 | Discontinued: intolerable adverse drug reaction in the opinion of the investigator (human, in vivo): 2 | Dry skin (human, in vivo): 9 (18) Number of subjects (percent) | Dry skin and rash (human, in vivo): 8 subjects | Dry skin, Grade 3 (human, in vivo): 0 n | Dry skin, Total (human, in vivo): 9 n | Dyspepsia (human, in vivo): 2 (4) Number of subjects (percent) | Erythema (human, in vivo): 4 (8) Number of subjects (percent) | Erythema, Grade 3 (human, in vivo): 0 n | Erythema, Total (human, in vivo): 4 n | Eye disorders (human, in vivo): 3 (6) Number of subjects (percent) | Gastrointestinal disorders (human, in vivo): 17 (33) Number of subjects (percent) | Hepatitis toxic (human, in vivo): 1 (2) Number of subjects (percent) | Hepato-biliary disorders (human, in vivo): 1 (2) Number of subjects (percent) | Leukopenia (human, in vivo): 1 (2) Number of subjects (percent) | Low density lipoprotein increased (human, in vivo): 2 (4) Number of subjects (percent) | Nausea (human, in vivo): 6 (12) Number of subjects (percent) | Pruritus, Grade 3 (human, in vivo): 1 n | Pruritus, Total (human, in vivo): 5 n | Psoriasiform dermatitis, Grade 3 (human, in vivo): 4 n | Psoriasiform dermatitis, Total (human, in vivo): 19 n | Rash (human, in vivo): 32 subjects | Rash papular (human, in vivo): 2 (4) Number of subjects (percent) | Rash papular, Grade 3 (human, in vivo): 0 n | Rash papular, Total (human, in vivo): 2 n | SAE: Acute sinusitis (human, in vivo): 1 (2.0)/1 n (%) | SAE: Appendicitis (human, in vivo): 1 (2.0)/1 n (%) | SAE: Atrial fibrillation (human, in vivo): 1 (2.0)/1 n (%) | SAE: Cardiac disorders (human, in vivo): 1 (2.0)/1 n (%) | SAE: Disease progression (human, in vivo): 1 (2.0)/1 n (%) | SAE: General disorders and administration site conditions (human, in vivo): 1 (2.0)/1 n (%) | SAE: Peritonitis (human, in vivo): 1 (2.0)/1 n (%) | SAE: Pneumonia (human, in vivo): 1 (2.0)/1 n (%) | Toxic skin eruption, Grade 3 (human, in vivo): 7 n | Toxic skin eruption, Total (human, in vivo): 9 n | Transaminases increased (human, in vivo): 1 (2) Number of subjects (percent) | dose-reduction because of rash (human, in vivo): 9 n | study withdrawal because of rash (human, in vivo): 6 n | time after which skin lesions were resolved (human, in vivo): 4–6 months | time to resolution of skin toxicity after discontinuation of the drug (human, in vivo): 1–2 weeks | DLTs (human, in vivo, 28 days): 4 | dose-limiting toxicity (DLT) (human, in vivo, 28 days): Grade-3 psoriasis-like skin toxicity | dose-limiting toxicity (DLT) (in vivo): rash
